The inhibition in vivo is the change of the read-out against control, counted positive when it falls.

Results on one compound are retold here after patent publication US4767749A, “Ester of (triarylphosphoranylidene)carbamic acid having diuretic and ability to lower plasma renin properties” (American Cyanamid Company, priority 1986, dated 1988).

SMILES strings stand for the structures. Read-outs that look alike come from different tables or passages of the source.

The subject of assay [1] is plasma renin activity. In words: Lowering of plasma renin activity in normal conscious rats. It is filed as in vivo, male Wistar rats. The settings on record: single 25 mg/kg oral dose, 6 rats. The method, then: Compounds were tested for their ability to lower plasma renin activity of conscious, male Wistar rats (180-200 g, Charles River Labs.). Test agents were compounded in a mortar and pestle with 3% preboiled starch suspension. Rats were dosed orally by gavage with 25 mg/kg test agent in a dose volume of 2 ml/kg. At time zero and 1/3, 1, 3 and 6 hours relative to dosing, rats were sacrificed by decapitation and the first 3 seconds of blood collected in two chilled Vacutainer® tubes (Becton-Dickinson, Rutherford, N.J.) containing 40 μl of 150 mg/ml tripotassium EDTA. Plasma fractions, obtained by centrifugation for 20 minutes at 4° C. and 3000 G, were incubated (one of each pair at 37° C., the other at 4° C.) at pH 6.8 in 50 mM phosphate buffer to produce angiotensin I. The incubates contained peptidase inhibitors to prevent angiotensin I degradation and the buffer contained one mg/ml lysozyme (Sigma Grade III) used as an antiabsorbant. The incubates were diluted 20 fold in cold Tris buffer (pH adjusted to 7.4 with glacial acetic acid) also containing one mg/ml lysozyme, and then frozen. Diluted incubates were assayed within 3 days for angiotensin I content by radioimmunoassay according to a modification of the method of Haber, et al., J. Clin. Endocrin., 29, 1349-1355 (1969). Renin activity is calculated as the rate of production of angiotensin I (nanograms of angiotensin I/ml plasma/hour at 37° C.) less controls (rate at 4° C.).

Another assay has as its system isolated rat hearts. Kind of assay: Cardiodynamic effects in the isolated perfused rat heart preparation. The following applies: for activation at 1 µg/mL / activation at 4 µg/mL / activation at 8 µg/mL: Rattus norvegicus; for HR (mean % change): rate of cardiac contraction. How it is done:
The effect of (triphenylphospharnylidene)carbamic acid, ethyl ester on cardiac contractility was determined by the following test.
Isolated rat hearts were prepared and perfused essentially as described by Neely and Rovetto, Techniques for perfusing isolated rat hearts., in Methods of Enzymology, 24, part D, 43-60 (1975), J. G. Hardman and B. W. O'Malley (eds.), Academic Press, New York, N.Y. The hearts were cooled in ice cold saline and transferred to a Langendorff apparatus and perfused in a retrograde fashion with oxygenated Krebs-Henseleit buffer at 37° C. A 2-0 silk thread was secured to the left ventricular apex and run via pulleys to a force displacement transducer (Grass Instrument Co., model FT03C). Force of contraction (F), the first derivative of force with respect to time (dF/dt), and rate of cardiac contraction (HR) were monitored on a polygraph recorder (Grass Instrument Co., model 7D).
The perfusion medium was a modified Krebs-Henseleit buffer of the following composition:
This medium was equilibrated with 95% oxygen:5% carbon dioxide at 37° C.
(Triphenylphosphoranylidene)carbamic acid, ethyl ester was dissolved in absolute ethanol at a concentration of 10 mg/ml and then diluted with Krebs-Henseleit buffer to the required stock concentration. The stock solution was infused at a constant rate by a syringe pump into the flow of buffer presented to the isolated heart at a rate necessary to achieve the desired final concentration.

Assay [2] relates to cardiac contractility in anesthetized dogs. In words: Effect on cardiac contractility in anesthetized dogs, intravenous. The following applies: intravenous administration; same effect as in isolated rat heart (Table IV). It is filed as in vivo, dog.
Assay [3] concerns plasma renin activity. In words: Inhibition of evoked (drug-induced) elevation of plasma renin activity in conscious rats. It is filed as in vivo, male Wistar rats. The following applies: Rattus norvegicus, 30 min before provocative treatment. The method, then: Inhibition of evoked increase of plasma renin activity was determined by the following test.
Compounds were tested for their ability to prevent drug-induced elevation of plasma renin activity (PRA) in concious, male Wistar rats (180-200 g, Charles River Lab.). PRA elevation was induced by a combined oral provacative treatment (C) of hydrochlorothiazide (10 mg/kg) and 1-(3-benzoyl-3-mercapto-2-methylpropionyl)-L-proline, acetate (U.S. Pat. No. 4,226,775) (one mg/kg), prepared by compounding in a mortar and pestle with preboiled 3% starch suspension. This treatment provided the daily maximum PRA. The daily minimum PRA was obtained from rats given oral starch suspension (S) alone. The magnitude of drug effect on PRA elevation was ascertained from rats pretreated orally with test agent (D), at the indicated doses, 30 minutes prior to administration of provacative treatment (C). The test agent was also compounded in preboiled 3% starch suspension. The dose volumes for both pretreatment and provocative treatment were 2 ml/kg. One hour after provocative treatment the rats were sacrificed by decapitation and the first 3 seconds of blood collected in two chilled Vacutainer® tubes (Becton-Dickinson, Rutherford, N.J.) containing 40 μl of 150 mg/ml tripotassium EDTA. The plasma fractions, obtained by centrifugation for 20 minutes at 4° C. and 3000 G, were incubated (one of each pair at 37° C., the other at 4° C.) at pH 6.8 in 50 mM phosphate buffer to produce angiotensin I. The incubates contained peptidase inhibitors to prevent angiotensin I degradation and the incubation buffer contained one mg/ml lysozyme (Sigma Grade III) used as an antiabsorbant. The incubates were diluted 20 fold in cold 100 mM Tris buffer (pH adjusted to 7.4 with glacial acetic acid) also containing one mg/ml lysozyme, and then frozen. Diluted incubates were assayed within 3 days for angiotensin I content by radioimmunoassay according to a modification of the method of Haber, et al., J. Clin. Endocrin., 29, 1349-1355 (1969).
PRA is calculated as follows:
PRA(ng AI/hour/ml plasma)=PRA 37° C.-PRA 4° C.
Percent inhibition of PRA elevation is calculated as follows: [formula]

The subject of assay [4] is spontaneously hypertensive rats (SHR). Kind of assay: Diuretic activity in spontaneously hypertensive rats. The settings on record: 100 mg/kg by gavage with 0.9% sodium chloride loading 25 ml/kg; 0-5 hour urine. The class given is in vivo, male spontaneously hypertensive rats (Okamoto strain). The method, boiled down: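 Male Okamoto SHR (about 300 g, 16 weeks old) given test compound by gavage at 100 mg/kg, suspended in 3% preboiled starch, with 0.9% NaCl load at 25 ml/kg at zero hour. Urine collected 0–5 h in metabolism cages. Urinary sodium and potassium reported as mEq excreted.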

With `CCOC(=O)N=P(c1ccccc1)(c1ccccc1)c1ccccc1` [(Triphenylphosphoranylidene)carbamic acid, ethyl ester], the “% Lowering of plasma renin activity” value amounted to 0% in the assay on plasma renin activity [1] (0 hours after dose); 38% with plasma renin activity [1] (1/3 hour after dose); 74% with plasma renin activity [1] (1 hour after dose); 59% with plasma renin activity [1] (3 hours after dose); 40% in the assay on plasma renin activity [1] (6 hours after dose). Further, the activation at 1 µg/mL turned out to be 5% in the assay on isolated rat hearts (final drug concentration 1 mg/liter, 7 hearts, read-out: Concentration Force (g) (mean % change)) and 6% in the assay on isolated rat hearts (final drug concentration 1 mg/liter, 7 hearts, read-out: dF/dt (g/sec) (mean % change)). Further, the activation at 4 µg/mL was 18% with isolated rat hearts (final drug concentration 4 mg/liter, 6 hearts, read-out: Concentration Force (g) (mean % change)) and 16% in the assay on isolated rat hearts (final drug concentration 4 mg/liter, 6 hearts, read-out: dF/dt (g/sec) (mean % change)). Moreover, the activation at 8 µg/mL is 24% in the assay on isolated rat hearts (final drug concentration 8 mg/liter, 5 hearts, read-out: Concentration Force (g) (mean % change)) and 21% in the assay with isolated rat hearts (final drug concentration 8 mg/liter, 5 hearts, read-out: dF/dt (g/sec) (mean % change)). Moreover, the “HR (mean % change)” value in the assay on isolated rat hearts (final drug concentration 1 mg/liter, 7 hearts) is -3 mean % change; in the assay on isolated rat hearts (final drug concentration 4 mg/liter, 6 hearts), -2 mean % change; with isolated rat hearts (final drug concentration 8 mg/liter, 5 hearts), -2 mean % change. Also, the “effect on cardiac contractility in anesthetized dogs” value in assay [2] is “The same effect has been achieved”. In the assay on plasma renin activity [3] (3 mg/kg oral), this compound registered an inhibition in vivo at 3 mg/kg of 22%. This compound gave an inhibition in vivo at 5 mg/kg with plasma renin activity [3] (5 mg/kg oral) of 29%. The same compound gave an inhibition in vivo at 7 mg/kg in the assay on plasma renin activity [3] (7 mg/kg oral) of 46%. Further, the inhibition in vivo at 10 mg/kg with plasma renin activity [3] (10 mg/kg oral) was 81%. Also, the inhibition in vivo at 15 mg/kg with plasma renin activity [3] (15 mg/kg oral) stood at 79%. The compound also gave an inhibition in vivo at 25 mg/kg with plasma renin activity [3] (25 mg/kg oral) of 80%. In assay [4], the “Potassium (urinary excretion)” value was found to be 0.50 mEQ/5 Hours. In addition, the “Sodium (urinary excretion)” value in assay [4] was 1.86 mEQ/5 Hours. Further, in assay [4], the “Volume (urine)” value is 15.5 mL.
